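Assay format: 96-well plates, 48-hour exposure. The concentration for 50% growth inhibition is given as GI50. TGI is the concentration that stops growth completely.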
Key:
Assay in all cases: NCI anticancer screen, dose series, 48 h
786-0 renal = system: 786-0 renal
A498 renal = system: A498 renal
A549 NSCLC = system: A549 NSCLC
ACHN renal = system: ACHN renal
BT-549 breast = system: BT-549 breast
CAKI-1 renal = system: CAKI-1 renal
COLO 205 colon = system: COLO 205 colon
DU-145 prostate = system: DU-145 prostate
EKVX NSCLC = system: EKVX NSCLC
HCC-2998 colon = system: HCC-2998 colon
HCT-116 colon = system: HCT-116 colon
HCT-15 colon = system: HCT-15 colon
HL-60(TB) leukemia = system: HL-60(TB) leukemia
HOP-62 NSCLC = system: HOP-62 NSCLC
HOP-92 NSCLC = system: HOP-92 NSCLC
HS 578T breast = system: HS 578T breast
HT29 colon = system: HT29 colon
KM12 colon = system: KM12 colon
LOX IMVI melanoma = system: LOX IMVI melanoma
M14 melanoma = system: M14 melanoma
MALME-3M melanoma = system: MALME-3M melanoma
MCF7 breast = system: MCF7 breast
MDA-MB-231 breast = system: MDA-MB-231 breast
MDA-MB-435 = system: MDA-MB-435
MOLT-4 leukemia = system: MOLT-4 leukemia
NCI-H226 lung = system: NCI-H226 lung
NCI-H23 lung = system: NCI-H23 lung
NCI-H460 lung = system: NCI-H460 lung
NCI-H522 lung = system: NCI-H522 lung
NCI/ADR-RES ovarian = system: NCI/ADR-RES ovarian
OVCAR-3 ovarian = system: OVCAR-3 ovarian
OVCAR-4 ovarian = system: OVCAR-4 ovarian
OVCAR-5 ovarian = system: OVCAR-5 ovarian
OVCAR-8 ovarian = system: OVCAR-8 ovarian
PC-3 prostate = system: PC-3 prostate
RPMI-8226 leukemia = system: RPMI-8226 leukemia
RXF 393 renal = system: RXF 393 renal
SF-268 CNS = system: SF-268 CNS
SF-295 CNS = system: SF-295 CNS
SF-539 CNS = system: SF-539 CNS
SK-MEL-2 melanoma = system: SK-MEL-2 melanoma
SK-MEL-28 melanoma = system: SK-MEL-28 melanoma
SK-MEL-5 melanoma = system: SK-MEL-5 melanoma
SK-OV-3 ovarian = system: SK-OV-3 ovarian
SN12C renal = system: SN12C renal
SNB-19 CNS = system: SNB-19 CNS
SNB-75 CNS = system: SNB-75 CNS
SR leukemia = system: SR leukemia
SW-620 colon = system: SW-620 colon
T-47D breast = system: T-47D breast
TK-10 renal = system: TK-10 renal
U251 CNS = system: U251 CNS
UACC-62 melanoma = system: UACC-62 melanoma
UO-31 renal = system: UO-31 renal

CC(c1cc(Cl)ccc1O)c1cc(Cl)ccc1O
GI50 (786-0 renal): 15.7 µM
TGI (786-0 renal): 36.1 µM
GI50 (A498 renal): 8.4 µM
TGI (A498 renal): 20.8 µM
GI50 (A549 NSCLC): 4.15 µM
TGI (A549 NSCLC): 18.9 µM
GI50 (ACHN renal): 3.99 µM
TGI (ACHN renal): 14.1 µM
GI50 (BT-549 breast): 4.58 µM
TGI (BT-549 breast): 16.9 µM
GI50 (CAKI-1 renal): 2.61 µM
TGI (CAKI-1 renal): 16.4 µM
GI50 (COLO 205 colon): 17.6 µM
TGI (COLO 205 colon): 33.5 µM
GI50 (DU-145 prostate): 5.2 µM
TGI (DU-145 prostate): 16.3 µM
GI50 (EKVX NSCLC): 2.98 µM
TGI (EKVX NSCLC): 13.4 µM
GI50 (HCC-2998 colon): 3.84 µM
TGI (HCC-2998 colon): 12.8 µM
GI50 (HCT-116 colon): 3.38 µM
TGI (HCT-116 colon): 10.3 µM
GI50 (HCT-15 colon): 4.54 µM
TGI (HCT-15 colon): 16.6 µM
GI50 (HL-60(TB) leukemia): 2.55 µM
TGI (HL-60(TB) leukemia): 5.75 µM
GI50 (HOP-62 NSCLC): 3.76 µM
TGI (HOP-62 NSCLC): 17.5 µM
GI50 (HOP-92 NSCLC): 1.71 µM
TGI (HOP-92 NSCLC): 5.35 µM
GI50 (HS 578T breast): 2.74 µM
TGI (HS 578T breast): 7.19 µM
GI50 (HT29 colon): 2.74 µM
TGI (HT29 colon): 9.13 µM
GI50 (KM12 colon): 3.22 µM
TGI (KM12 colon): 10.2 µM
GI50 (LOX IMVI melanoma): 3.97 µM
TGI (LOX IMVI melanoma): 17.1 µM
GI50 (M14 melanoma): 2.97 µM
TGI (M14 melanoma): 9.82 µM
GI50 (MALME-3M melanoma): 4.61 µM
TGI (MALME-3M melanoma): 22.7 µM
GI50 (MCF7 breast): 3.19 µM
TGI (MCF7 breast): 16.5 µM
GI50 (MDA-MB-231 breast): 3.88 µM
TGI (MDA-MB-231 breast): 16.2 µM
GI50 (MDA-MB-435): 2.32 µM
TGI (MDA-MB-435): 7.25 µM
GI50 (MOLT-4 leukemia): 3.3 µM
TGI (MOLT-4 leukemia): 10.3 µM
GI50 (NCI-H226 lung): 12 µM
TGI (NCI-H226 lung): 43.5 µM
GI50 (NCI-H23 lung): 2.83 µM
TGI (NCI-H23 lung): 8.32 µM
GI50 (NCI-H460 lung): 2.26 µM
TGI (NCI-H460 lung): 4.88 µM
GI50 (NCI-H522 lung): 2.24 µM
TGI (NCI-H522 lung): 5.24 µM
GI50 (NCI/ADR-RES ovarian): 3.15 µM
TGI (NCI/ADR-RES ovarian): 9.16 µM
GI50 (OVCAR-3 ovarian): 3.62 µM
TGI (OVCAR-3 ovarian): 13 µM
GI50 (OVCAR-4 ovarian): 5.24 µM
TGI (OVCAR-4 ovarian): 22.8 µM
GI50 (OVCAR-5 ovarian): 11.1 µM
TGI (OVCAR-5 ovarian): 26.7 µM
GI50 (OVCAR-8 ovarian): 4.04 µM
TGI (OVCAR-8 ovarian): 19.9 µM
GI50 (PC-3 prostate): 3.73 µM
TGI (PC-3 prostate): 15 µM
GI50 (RPMI-8226 leukemia): 3.73 µM
TGI (RPMI-8226 leukemia): 9.89 µM
GI50 (RXF 393 renal): 3.42 µM
TGI (RXF 393 renal): 9.7 µM
GI50 (SF-268 CNS): 4.33 µM
TGI (SF-268 CNS): 16.9 µM
GI50 (SF-295 CNS): 2.3 µM
TGI (SF-295 CNS): 7.83 µM
GI50 (SF-539 CNS): 3.52 µM
TGI (SF-539 CNS): 12.9 µM
GI50 (SK-MEL-2 melanoma): 2.98 µM
TGI (SK-MEL-2 melanoma): 7.23 µM
GI50 (SK-MEL-28 melanoma): 4.13 µM
TGI (SK-MEL-28 melanoma): 17 µM
GI50 (SK-MEL-5 melanoma): 3.41 µM
TGI (SK-MEL-5 melanoma): 10 µM
GI50 (SK-OV-3 ovarian): 13.4 µM
TGI (SK-OV-3 ovarian): 26.4 µM
GI50 (SN12C renal): 3.66 µM
TGI (SN12C renal): 16.1 µM
GI50 (SNB-19 CNS): 8.13 µM
TGI (SNB-19 CNS): 22.4 µM
GI50 (SNB-75 CNS): 2.49 µM
TGI (SNB-75 CNS): 11.9 µM
GI50 (SR leukemia): 2.59 µM
TGI (SR leukemia): 9.95 µM
GI50 (SW-620 colon): 3.7 µM
TGI (SW-620 colon): 13.3 µM
GI50 (T-47D breast): 3.85 µM
TGI (T-47D breast): 18.7 µM
GI50 (TK-10 renal): 11.8 µM
TGI (TK-10 renal): 24.7 µM
GI50 (U251 CNS): 3.93 µM
TGI (U251 CNS): 14.5 µM
GI50 (UACC-62 melanoma): 3.58 µM
TGI (UACC-62 melanoma): 15 µM
GI50 (UO-31 renal): 2.3 µM
TGI (UO-31 renal): 10.8 µM

Reference: PubChem BioAssay (NCI)
